The results in this text go back to patent publication US20220152004A1, “HETEROCYCLYL(PHENYL)METHANOL COMPOUNDS USEFUL IN THE TREATMENT OF HYPERGLYCAEMIA” (ATROGI AB, priority 2019, published 2022).

Structures can show the parent of a compound that is named as a salt. Bounds are passed on as bounds.

The test system of assay [1] is L6-myotubes. The assay can be described thus: Measurement of intracellular cAMP levels in differentiated L6-myotubes. The assay is classed as cell-based. As to conditions: for Emax at 10 µM: 0.25 h, agonist final concentration 1×10^−5, 15 min, differentiated cells, Table 1, read-out: Biological example 2 (intracellular cAMP levels, activity compared to that of isoproterenol); for Biological example 4: Table 2, cAMP assay of Biological Example 2, agonist final concentration 1×10^−5. The procedure:
(§1) L6-myoblasts were grown in Dulbecco's Modified Eagle's Medium (DMEM) containing 4.5 g/l glucose supplemented with 10% fetal bovine serum, 2 mM L-Glutamine, 50 U/ml penicillin, 50 μg/ml streptomycin and 10 mM HEPES. Cells were plated at 1×10^5 cells per ml in 24-well plates. After reaching 90% confluence the cells were grown in medium containing 2% FBS for 7 days where upon cells differentiated into myotubes.
Differentiated cells were serum-starved overnight and stimulated with agonist, final concentration 1×10^−5, for 15 min in stimulation buffer (HBSS supplemented with 1% BSA, 5 mM HEPES and 1 mM IBMX, pH 7,4) The medium was then aspirated and to end the reaction 100 μL of 95% EtOH was added to each well of a 24-well plate and cells were kept in −20° C. over night. The EtOH was let to evaporate and 500 μL of lysis buffer (1% BSA, 5 mM HEPES and 0,3% Tween-20, pH 7,4) was added to each well before put in −80° C. for 30 min and then kept in −20° C. Intracellular cAMP levels were detected using an alpha screen cAMP kit (6760635D from Perkin Elmer). The activity for each compound is compared to that of isoproterenol.

The test system of assay [2] is L6-myotubes. As to the kind of experiment: Glucose uptake (3H-2-deoxy-glucose) in differentiated L6-myotubes. In kind it is cell-based. Particulars: agonist final concentration 1×10^−5; for Emax at 10 µM: differentiated L6-myotubes, Table 1, read-out: Biological example 1 (glucose uptake, activity compared to that of isoproterenol); for Biological example 3: Table 2, glucose uptake assay of Biological Example 1. The procedure: as §1
Differentiated L6-myotubes were serum-starved overnight in medium containing 0,5% fatty-acid free BSA and stimulated with agonist, final concentration 1×10^−5. After 1 h 40 min cells were washed with warm, glucose free medium or PBS and another portion of agonist was added to glucose free medium. After 20 min the cells were exposed to 50 nM ^3H-2-deoxy-glucose for another 10 min before washed in ice cold glucose free medium or PBS and lysed in 0.2 M NaOH for 1 h in 60° C.

Take `O[C@@H](c1cccc(F)c1)[C@H]1CCC2(CC2)N1` [Example 30, (S)-(3-Fluorophenyl)((R)-4-azaspiro[2.4]heptan-5-yl)methanol hydrochloride]: the Emax at 10 µM was less than 25% in assay [1] and 25 to 50% in assay [2].

`O[C@H](c1cccc(F)c1)[C@H]1CCC2(CCCC2)N1` [Example 31, (R)-(3-Fluorophenyl)((R)-1-azaspiro[4.4]nonan-2-yl)methanol maleate]: the Emax at 10 µM in assay [1] was 25 to 50%; in assay [2] it was 50 to 75%.

On to `O[C@@H](c1cccc(F)c1)[C@H]1CCC2(CCCC2)N1` [Example 32, (S)-(3-Fluorophenyl)((R)-1-azaspiro[4.4]nonan-2-yl)methanol maleate], for which the Emax at 10 µM in assay [1] and in assay [2] was less than 25% each time.

For `CC1(C)C[C@H]([C@H](O)c2cccc(F)c2)N1.Cl` [Example 33, (R)-((R)-4,4-dimethylazetidin-2-yl)(3-fluorophenyl)methanol hydrochloride], the “Biological example 4” value in assay [1] was “++ (between 75 and 50%)”. Further, the “Biological example 3” value in assay [2] is “+++ (more than 75% of that of isoproterenol)”.

As for `CC1(C)C[C@@H]([C@@H](O)c2ccccc2F)N1.Cl` [Example 34, (S)-((S)-4,4-dimethylazetidin-2-yl)(2-fluorophenyl)methanol hydrochloride], the “Biological example 4” value in assay [1] was “− (less than 25%)”. Besides, in assay [2], the “Biological example 3” value is “+ (between 50 and 25%)”.

Turning to `CC1(C)C[C@H]([C@H](O)c2ccccc2F)N1.Cl` [Example 35, (R)-((R)-4,4-dimethylazetidin-2-yl)(2-fluorophenyl)methanol hydrochloride], the “Biological example 4” value in assay [1] was “+ (between 50 and 25%)”. Besides, the “Biological example 3” value in assay [2] is listed as “+++ (more than 75% of that of isoproterenol)”.

With `CC1(C)C[C@H]([C@@H](O)c2ccccc2F)N1.Cl` [Example 36, (S)-((R)-4,4-dimethylazetidin-2-yl)(2-fluorophenyl)methanol hydrochloride], the “Biological example 4” value in assay [1] is “− (less than 25%)”. Moreover, in assay [2], the “Biological example 3” value is “+ (between 50 and 25%)”.

Consider `CC1(C)C[C@@H]([C@H](O)c2ccccc2F)N1.Cl` [Example 37, (R)-((S)-4,4-dimethylazetidin-2-yl)(2-fluorophenyl)methanol hydrochloride], for which the “Biological example 4” value in assay [1] was “− (less than 25%)”. Also, in assay [2], the “Biological example 3” value is reported as “− (less than 25%)”.

As for `CC1(C)C[C@@H]([C@H](O)c2cccc(F)c2)N1.Cl` [Example 39, (R)-((S)-4,4-dimethylazetidin-2-yl)(3-fluorophenyl)methanol hydrochloride], the “Biological example 4” value in assay [1] is reported as “− (less than 25%)”. In assay [2], the “Biological example 3” value is “− (less than 25%)”.

`CC1(C)C[C@@H]([C@@H](O)c2cccc(F)c2)N1.Cl` [Example 40, (S)-((S)-4,4-dimethylazetidin-2-yl)(3-fluorophenyl)methanol hydrochloride]: the “Biological example 4” value in assay [1] is listed as “− (less than 25%)”. Moreover, in assay [2], the “Biological example 3” value is “+ (between 50 and 25%)”.

In the case of `CC1(C)CCC[C@@H]([C@H](O)c2ccccc2F)N1.Cl` [Example 41, (R)-((S)-6,6-dimethylpiperidin-2-yl)(2-fluorophenyl)methanol hydrochloride], the “Biological example 4” value in assay [1] is “+ (between 50 and 25%)”. Moreover, in assay [2], the “Biological example 3” value is reported as “+++ (more than 75% of that of isoproterenol)”.

With `CC1(C)CCC[C@@H]([C@@H](O)c2ccccc2F)N1.Cl` [Example 42, (S)-((S)-6,6-dimethylpiperidin-2-yl)(2-fluorophenyl)methanol hydrochloride], in assay [1], the “Biological example 4” value is “− (less than 25%)”. For the same compound, in assay [2], the “Biological example 3” value was “+ (between 50 and 25%)”.

In the case of `CC1(C)CCC[C@@H]([C@@H](O)c2cccc(F)c2)N1.Cl` [Example 43, (S)-((S)-6,6-dimethylpiperidin-2-yl)(3-fluorophenyl)methanol hydrochloride], the “Biological example 4” value in assay [1] is given as “− (less than 25%)”. Moreover, the “Biological example 3” value in assay [2] was “+ (between 50 and 25%)”.

Consider `CC1(C)CCC[C@@H]([C@H](O)c2cccc(F)c2)N1.Cl` [Example 44, (R)-((S)-6,6-dimethylpiperidin-2-yl)(3-fluorophenyl)methanol hydrochloride], for which the “Biological example 4” value in assay [1] is “− (less than 25%)”. Besides, the “Biological example 3” value in assay [2] is “++ (between 75 and 50%)”.

As for `CC1(C)C[C@H]([C@H](O)c2cccc(Cl)c2)N1.O=C(O)/C=C\C(=O)O` [Example 45, (R)-(3-chlorophenyl)((R)-4,4-dimethylazetidin-2-yl)methanol maleate], in assay [1], the “Biological example 4” value is reported as “− (less than 25%)”. Also, the “Biological example 3” value in assay [2] is listed as “+++ (more than 75% of that of isoproterenol)”.

Consider `CC1(C)C[C@H]([C@@H](O)c2cccc(Cl)c2)N1.O=C(O)/C=C\C(=O)O` [Example 46, (S)-(3-chlorophenyl)((R)-4,4-dimethylazetidin-2-yl)methanol maleate], for which the “Biological example 4” value in assay [1] was “− (less than 25%)”. Further, the “Biological example 3” value in assay [2] is listed as “− (less than 25%)”.

As to `CC1(C)C[C@@H]([C@H](O)c2cccc(Cl)c2)N1.O=C(O)/C=C\C(=O)O` [Example 47, (R)-(3-chlorophenyl)((S)-4,4-dimethylazetidin-2-yl)methanol maleate], the “Biological example 4” value in assay [1] is “− (less than 25%)”. Also, in assay [2], the “Biological example 3” value is “++ (between 75 and 50%)”.

For `CC1(C)C[C@@H]([C@@H](O)c2cccc(Cl)c2)N1.O=C(O)/C=C\C(=O)O` [Example 48, (S)-(3-chlorophenyl)((S)-4,4-dimethylazetidin-2-yl)methanol maleate], the “Biological example 4” value in assay [1] was “− (less than 25%)”. The “Biological example 3” value in assay [2] is “+ (between 50 and 25%)”.

In the case of `CC1(C)CC[C@H]([C@H](O)c2cccc(N)c2F)N1.Cl` [Example 49, (R)-(3-amino-2-fluorophenyl)((R)-5,5-dimethylpyrrolidin-2-yl)methanol hydrochloride], the “Biological example 4” value in assay [1] was “− (less than 25%)”. For the same compound, the “Biological example 3” value in assay [2] is given as “+++ (more than 75% of that of isoproterenol)”.

Take `CC1(C)CC[C@H]([C@@H](O)c2cccc(N)c2F)N1.Cl` [Example 50, (S)-(3-amino-2-fluorophenyl)((R)-5,5-dimethylpyrrolidin-2-yl)methanol hydrochloride]: in assay [1], the “Biological example 4” value was “− (less than 25%)”. In addition, the “Biological example 3” value in assay [2] is “+ (between 50 and 25%)”.
